Reference: PubChem BioAssay (NCI)
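The compound was tested at five concentrations on cells cultured in 96-well plates, with a 48-hour exposure period. TGI is the concentration that stops growth completely.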

How the values were obtained:
Assay in all cases: NCI-60 cell line screen, 48 h
[1] = system: RPMI-8226 leukemia
[2] = system: UACC-257 melanoma
[3] = system: HCC-2998 colon
[4] = system: HCT-15 colon
[5] = system: SNB-75 CNS
[6] = system: SF-268 CNS
[7] = system: HOP-62 NSCLC
[8] = system: M14 melanoma
[9] = system: TK-10 renal
[10] = system: EKVX NSCLC
[11] = system: SW-620 colon
[12] = system: UACC-62 melanoma
[13] = system: MDA-MB-435
[14] = system: SK-OV-3 ovarian
[15] = system: OVCAR-3 ovarian
[16] = system: HCT-116 colon
[17] = system: CAKI-1 renal
[18] = system: IGROV1 ovarian
[19] = system: PC-3 prostate
[20] = system: COLO 205 colon
[21] = system: MOLT-4 leukemia
[22] = system: MCF7 breast
[23] = system: K-562 leukemia
[24] = system: SNB-19 CNS
[25] = system: SK-MEL-28 melanoma
[26] = system: HS 578T breast
[27] = system: CCRF-CEM leukemia
[28] = system: MALME-3M melanoma
[29] = system: T-47D breast
[30] = system: SK-MEL-2 melanoma
[31] = system: MDA-N
[32] = system: RXF 393 renal
[33] = system: UO-31 renal
[34] = system: NCI-H522 lung
[35] = system: NCI-H460 lung
[36] = system: HOP-92 NSCLC
[37] = system: A549 NSCLC
[38] = system: OVCAR-4 ovarian
[39] = system: SN12C renal
[40] = system: MDA-MB-231 breast
[41] = system: NCI-H226 lung
[42] = system: BT-549 breast
[43] = system: U251 CNS
[44] = system: SK-MEL-5 melanoma
[45] = system: HT29 colon
[46] = system: OVCAR-8 ovarian
[47] = system: SF-539 CNS
[48] = system: ACHN renal
[49] = system: HL-60(TB) leukemia
[50] = system: NCI/ADR-RES ovarian
[51] = system: SR leukemia
[52] = system: 786-0 renal
[53] = system: NCI-H23 lung
[54] = system: SF-295 CNS
[55] = system: DU-145 prostate
[56] = system: KM12 colon
[57] = system: A498 renal
[58] = system: OVCAR-5 ovarian

Work on `CC1CN(CCO)CC(C)O1` (configuration not stated) yielded a TGI [1] greater than 100 µM, a TGI [2] greater than 100 µM and a TGI [3] greater than 100 µM. The TGI [4] was greater than 100 µM, the TGI [5] was greater than 100 µM and the TGI [6] was greater than 100 µM. For the same molecule, the TGI [7] was greater than 100 µM, the TGI [8] was greater than 100 µM and the TGI [9] was greater than 100 µM. For the same molecule, the TGI [10] was greater than 100 µM, the TGI [11] was greater than 100 µM and the TGI [12] was greater than 100 µM. For the same molecule, the TGI [13] was greater than 100 µM, the TGI [14] was greater than 100 µM and the TGI [15] was greater than 100 µM. The TGI [16] was greater than 100 µM, the TGI [17] was greater than 100 µM and the TGI [18] was greater than 100 µM. For the same molecule, the TGI [19] was greater than 100 µM, the TGI [20] was greater than 100 µM and the TGI [21] was greater than 100 µM. It also gave a TGI [22] greater than 100 µM, a TGI [23] greater than 100 µM and a TGI [24] greater than 100 µM. It also gave a TGI [25] greater than 100 µM, a TGI [26] greater than 100 µM and a TGI [27] greater than 100 µM. The TGI [28] was greater than 100 µM, the TGI [29] was greater than 100 µM and the TGI [30] was greater than 100 µM. For the same molecule, the TGI [31] was greater than 100 µM, the TGI [32] was greater than 100 µM and the TGI [33] was greater than 100 µM. For the same molecule, the TGI [34] was greater than 100 µM, the TGI [35] was greater than 100 µM and the TGI [36] was greater than 100 µM. The TGI [37] was greater than 100 µM, the TGI [38] was greater than 100 µM and the TGI [39] was greater than 100 µM. It also gave a TGI [40] greater than 100 µM, a TGI [41] greater than 100 µM and a TGI [42] greater than 100 µM. The TGI [43] was greater than 100 µM, the TGI [44] was greater than 100 µM and the TGI [45] was greater than 100 µM. For the same molecule, the TGI [46] was greater than 100 µM, the TGI [47] was greater than 100 µM and the TGI [48] was greater than 100 µM. The TGI [49] was greater than 100 µM, the TGI [50] was greater than 100 µM and the TGI [51] was greater than 100 µM. The TGI [52] was greater than 100 µM, the TGI [53] was greater than 100 µM and the TGI [54] was greater than 100 µM. It also gave a TGI [55] greater than 100 µM, a TGI [56] greater than 100 µM and a TGI [57] greater than 100 µM. For the same molecule, the TGI [58] was greater than 100 µM.

With `CC(=O)Nc1ccc2c(C(=O)O)c(C)c(=O)[nH]c2n1` the TGI [1] was greater than 100 µM, the TGI [2] was greater than 100 µM and the TGI [4] was greater than 100 µM. The TGI [6] was greater than 100 µM, the TGI [8] was greater than 100 µM and the TGI [9] was greater than 100 µM. It also gave a TGI [10] greater than 100 µM, a TGI [11] greater than 100 µM and a TGI [12] greater than 100 µM. The TGI [13] was greater than 100 µM, the TGI [14] was greater than 100 µM and the TGI [16] was greater than 100 µM. For the same molecule, the TGI [17] was greater than 100 µM, the TGI [18] was greater than 100 µM and the TGI [19] was greater than 100 µM. It also gave a TGI [20] greater than 100 µM, a TGI [21] greater than 100 µM and a TGI [22] greater than 100 µM. It also gave a TGI [23] greater than 100 µM, a TGI [24] greater than 100 µM and a TGI [26] greater than 100 µM. It also gave a TGI [28] greater than 100 µM, a TGI [29] greater than 100 µM and a TGI [30] greater than 100 µM. It also gave a TGI [31] greater than 100 µM, a TGI [32] greater than 100 µM and a TGI [33] greater than 100 µM. The TGI [34] was greater than 100 µM, the TGI [35] was greater than 100 µM and the TGI [36] was 56 µM. The TGI [37] was greater than 100 µM, the TGI [39] was greater than 100 µM and the TGI [40] was greater than 100 µM. The TGI [41] was greater than 100 µM, the TGI [42] was greater than 100 µM and the TGI [43] was greater than 100 µM. For the same molecule, the TGI [44] was greater than 100 µM, the TGI [45] was greater than 100 µM and the TGI [46] was greater than 100 µM. The TGI [47] was greater than 100 µM, the TGI [48] was greater than 100 µM and the TGI [49] was greater than 100 µM. The TGI [50] was greater than 100 µM, the TGI [52] was greater than 100 µM and the TGI [53] was greater than 100 µM. It also gave a TGI [54] greater than 100 µM, a TGI [55] greater than 100 µM and a TGI [56] greater than 100 µM. For the same molecule, the TGI [58] was greater than 100 µM.
